Laboratory results from patent publication US20260077071A1, “Targeted Delivery of Theranostic Agents” (Peter MacCallum Cancer Institute, priority 2022, published 2026).
Like-named read-outs stand apart in the source and are kept apart here. Square brackets hold non-standard residues; d marks the D form. Peptide text beside a SMILES is read from it. Phe(3,4,5-F3) = N[C@@H](Cc1cc(F)c(F)c(F)c1)C(=O)O; Phe(F5) = N[C@@H](Cc1c(F)c(F)c(F)c(F)c1F)C(=O)O; Phe(3,4-F2) = N[C@@H](Cc1ccc(F)c(F)c1)C(=O)O; Phe(4-NH2) = Nc1ccc(C[C@H](N)C(=O)O)cc1; Phe(4-F) = N[C@@H](Cc1ccc(F)cc1)C(=O)O; 1Nal = N[C@@H](Cc1cccc2ccccc12)C(=O)O; 2Nal = N[C@@H](Cc1ccc2ccccc2c1)C(=O)O; NMeNle = CCCC[C@H](NC)C(=O)O; Sar = CNCC(=O)O

Target: T1, human full-length CCK-2 receptor (Homo sapiens, UniProt P32239)
T1 construct: stably transfected to over-express the human full-length CCK-2 receptor (A431-CCK-2R); expressed in transfected cells
T1 sequence (P32239 1-447): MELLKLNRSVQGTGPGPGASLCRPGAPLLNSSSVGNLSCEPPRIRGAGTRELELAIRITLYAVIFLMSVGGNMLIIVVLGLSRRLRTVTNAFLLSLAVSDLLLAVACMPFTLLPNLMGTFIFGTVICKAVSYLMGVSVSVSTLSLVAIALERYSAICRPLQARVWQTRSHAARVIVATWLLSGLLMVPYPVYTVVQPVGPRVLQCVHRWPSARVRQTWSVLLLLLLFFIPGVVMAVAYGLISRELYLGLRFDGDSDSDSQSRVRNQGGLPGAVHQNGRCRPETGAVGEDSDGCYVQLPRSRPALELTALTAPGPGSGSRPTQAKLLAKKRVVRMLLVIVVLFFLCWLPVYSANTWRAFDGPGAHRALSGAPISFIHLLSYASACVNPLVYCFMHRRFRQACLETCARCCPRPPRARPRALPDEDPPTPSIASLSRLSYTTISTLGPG
Assay: Competitive ligand binding against [^177Lu]Lu-DOTA-CP04 in A431-CCK-2R cells
Conditions: for loss of binding affinity / activity: D-Ala analogue versus baseline comparative example-1; for IC50: read-out: IC50; for decrease in affinity for the CCK-2 receptor: free peptide versus its linker/metal-complex (DOTA) form
Experimental: CCK-2 receptor binding experiments were conducted using A431 (human epidermoid carcinoma) cells stably transfected to over-express the human full-length CCK-2 receptor (A431-CCK-2R). As a negative control, A431 cells stably transfected with an empty vector were analysed simultaneously (A431-EV). A431 cells were maintained in DMEM (Gibco, Australia) media supplemented with 10% foetal calf serum and 250 μg/mL G418 as described previously (Aloj L, et al., J Nucl Med., 2004, Mar; 45(3), 485-94). The affinity of peptides for the CCK-2R was evaluated using competitive binding assays against [^177Lu]Lu-DOTA-CP04 in A431-CCK-2R cells. Briefly, 48 h before the experiment cells were plated at a density of 650,000 cells per well in 6 well plates. On the day of the experiment the peptides were diluted in DMEM supplemented with 1% foetal calf serum to at least 7 different concentrations (0-400 nM) and approximately 50,000 cpm of [^177Lu]Lu-DOTA-CP04 was added to each dilution. Cells were washed twice in ice-cold binding buffer (DMEM supplemented with 1% foetal calf serum) and resuspended in 1.5 mL of the pre-prepared compound mix before being incubated at 37° C. for 1 h. Post-incubation the media was removed and kept for analysis (unbound fraction) and the cells were washed twice in ice-cold binding buffer, which was pooled with the unbound fraction. Finally, 1 M NaOH was added to the cells and allowed to incubate for 5 min before lysates were collected (bound fraction). A small volume of lysate was kept aside to determine protein concentration using the Pierce® BCA protein assay kit (Thermo Fisher, Australia). All samples were analysed using the Perkin Elmer 2480 Wizard2™ gamma counter (PerkinElmer, Massachusetts, USA) and were normalised according to protein concentration. Half-maximal inhibitory concentrations (IC50) were determined using nonlinear regression calculated using GraphPad Prism Software (GraphPad Software, California, USA).
The compounds were evaluated for their ability to disrupt the binding between CCK-2 receptor (CCK-2R) and [^177Lu]Lu-DOTA-CP04 using the methodology described above and compared to comparative example-2 (FIG. 2; Table 5).

[1] = D-Ala substituted peptides (Table 2), against [^177Lu]Lu-DOTA-CP04 in A431-CCK-2R cells
[2] = substituted-phenylalanine peptides based on Cmp ex-1 (Table 3)

Structure (SMILES)	loss of binding affinity / activity	IC50 [1] [pM]	IC50 [2] [pM]	also measured
CCCC[C@@H](C(=O)N[C@@H](CC(=O)O)C(=O)N[C@@H](Cc1cccc2ccccc12)C(N)=O)N(C)C(=O)[C@H](Cc1c[nH]c2ccccc12)NC(=O)CN(C)C(=O)[C@H](Cc1ccc(O)cc1)NC(=O)[C@H](C)NC(=O)[C@@H](CCC(=O)O)NC(=O)[C@@H](CCC(=O)O)NC(=O)[C@@H](CCC(=O)O)NC(=O)[C@@H](CCC(=O)O)NC(=O)[C@@H](C)NC(=O)[C@H](N)CCC(=O)O [B] (H-[dE][dA][dE][dE][dE][dE]AY[Sar]W[NMeNle]D[1Nal]-NH2)	approx. 5 fold	1230		
CSCC[C@H](NC(=O)[C@H](Cc1c[nH]c2ccccc12)NC(=O)CNC(=O)[C@H](Cc1ccc(O)cc1)NC(=O)[C@H](C)NC(=O)[C@@H](CCC(=O)O)NC(=O)[C@@H](CCC(=O)O)NC(=O)[C@@H](CCC(=O)O)NC(=O)[C@@H](CCC(=O)O)NC(=O)[C@@H](CCC(=O)O)NC(=O)[C@@H](CCC(=O)O)NC(=O)CN1CCN(CC(=O)O)CCN(CC(=O)O)CCN(CC(=O)O)CC1)C(=O)N[C@@H](CC(=O)O)C(=O)N[C@@H](Cc1ccccc1)C(N)=O [CP04, reference compound]				decrease in affinity for the CCK-2 receptor: greater than 3 fold
CCCC[C@@H](C(=O)N[C@@H](CC(=O)O)C(=O)N[C@@H](Cc1cccc2ccccc12)C(N)=O)N(C)C(=O)[C@H](Cc1c[nH]c2ccccc12)NC(=O)CN(C)C(=O)[C@H](Cc1ccc(O)cc1)NC(=O)[C@H](C)NC(=O)[C@@H](CCC(=O)O)NC(=O)[C@@H](CCC(=O)O)NC(=O)[C@@H](CCC(=O)O)NC(=O)[C@@H](CCC(=O)O)NC(=O)[C@@H](CCC(=O)O)NC(=O)[C@H](N)CCC(=O)O [Cmp ex-1, reference compound] (H-[dE][dE][dE][dE][dE][dE]AY[Sar]W[NMeNle]D[1Nal]-NH2; N-terminus assumed)		319		decrease in affinity for the CCK-2 receptor: 5 fold
CCCC[C@@H](C(=O)N[C@@H](CC(=O)O)C(=O)N[C@@H](Cc1cccc2ccccc12)C(N)=O)N(C)C(=O)[C@H](Cc1c[nH]c2ccccc12)NC(=O)CN(C)C(=O)[C@H](Cc1ccc(O)cc1)NC(=O)[C@H](C)NC(=O)[C@@H](CCC(=O)O)NC(=O)[C@@H](CCC(=O)O)NC(=O)[C@@H](C)NC(=O)[C@@H](CCC(=O)O)NC(=O)[C@@H](CCC(=O)O)NC(=O)[C@H](N)CCC(=O)O [D] (H-[dE][dE][dE][dA][dE][dE]AY[Sar]W[NMeNle]D[1Nal]-NH2)	approx. 5 fold	1620		
CCCC[C@@H](C(=O)N[C@@H](CC(=O)O)C(=O)N[C@@H](Cc1cccc2ccccc12)C(N)=O)N(C)C(=O)[C@H](Cc1c[nH]c2ccccc12)NC(=O)CN(C)C(=O)[C@H](Cc1ccc(O)cc1)NC(=O)[C@H](C)NC(=O)[C@@H](CCC(=O)O)NC(=O)[C@@H](C)NC(=O)[C@@H](CCC(=O)O)NC(=O)[C@@H](CCC(=O)O)NC(=O)[C@@H](CCC(=O)O)NC(=O)[C@H](N)CCC(=O)O [E] (H-[dE][dE][dE][dE][dA][dE]AY[Sar]W[NMeNle]D[1Nal]-NH2)	equivalent loss of activity			
CCCC[C@@H](C(=O)N[C@@H](CC(=O)O)C(=O)N[C@@H](Cc1cccc2ccccc12)C(N)=O)N(C)C(=O)[C@H](Cc1c[nH]c2ccccc12)NC(=O)CN(C)C(=O)[C@H](Cc1ccc(O)cc1)NC(=O)[C@H](C)NC(=O)[C@@H](C)NC(=O)[C@@H](CCC(=O)O)NC(=O)[C@@H](CCC(=O)O)NC(=O)[C@@H](CCC(=O)O)NC(=O)[C@@H](CCC(=O)O)NC(=O)[C@H](N)CCC(=O)O [F] (H-[dE][dE][dE][dE][dE][dA]AY[Sar]W[NMeNle]D[1Nal]-NH2)	approx. 5 fold	1620		
CCCC[C@@H](C(=O)N[C@@H](CC(=O)O)C(=O)N[C@@H](Cc1ccc(F)cc1)C(N)=O)N(C)C(=O)[C@H](Cc1c[nH]c2ccccc12)NC(=O)CN(C)C(=O)[C@H](Cc1ccc(O)cc1)NC(=O)[C@H](C)NC(=O)[C@@H](CCC(=O)O)NC(=O)[C@@H](CCC(=O)O)NC(=O)[C@@H](CCC(=O)O)NC(=O)[C@@H](CCC(=O)O)NC(=O)[C@@H](CCC(=O)O)NC(=O)[C@H](N)CCC(=O)O [G] (H-[dE][dE][dE][dE][dE][dE]AY[Sar]W[NMeNle]D[Phe(4-F)]-NH2)			920	
CCCC[C@@H](C(=O)N[C@@H](CC(=O)O)C(=O)N[C@@H](Cc1ccc(F)c(F)c1)C(N)=O)N(C)C(=O)[C@H](Cc1c[nH]c2ccccc12)NC(=O)CN(C)C(=O)[C@H](Cc1ccc(O)cc1)NC(=O)[C@H](C)NC(=O)[C@@H](CCC(=O)O)NC(=O)[C@@H](CCC(=O)O)NC(=O)[C@@H](CCC(=O)O)NC(=O)[C@@H](CCC(=O)O)NC(=O)[C@@H](CCC(=O)O)NC(=O)[C@H](N)CCC(=O)O [H] (H-[dE][dE][dE][dE][dE][dE]AY[Sar]W[NMeNle]D[Phe(3,4-F2)]-NH2)			640	
CCCC[C@@H](C(=O)N[C@@H](CC(=O)O)C(=O)N[C@@H](Cc1cc(F)c(F)c(F)c1)C(N)=O)N(C)C(=O)[C@H](Cc1c[nH]c2ccccc12)NC(=O)CN(C)C(=O)[C@H](Cc1ccc(O)cc1)NC(=O)[C@H](C)NC(=O)[C@@H](CCC(=O)O)NC(=O)[C@@H](CCC(=O)O)NC(=O)[C@@H](CCC(=O)O)NC(=O)[C@@H](CCC(=O)O)NC(=O)[C@@H](CCC(=O)O)NC(=O)[C@H](N)CCC(=O)O [I] (H-[dE][dE][dE][dE][dE][dE]AY[Sar]W[NMeNle]D[Phe(3,4,5-F3)]-NH2)			260	
CCCC[C@@H](C(=O)N[C@@H](CC(=O)O)C(=O)N[C@@H](Cc1c(F)c(F)c(F)c(F)c1F)C(N)=O)N(C)C(=O)[C@H](Cc1c[nH]c2ccccc12)NC(=O)CN(C)C(=O)[C@H](Cc1ccc(O)cc1)NC(=O)[C@H](C)NC(=O)[C@@H](CCC(=O)O)NC(=O)[C@@H](CCC(=O)O)NC(=O)[C@@H](CCC(=O)O)NC(=O)[C@@H](CCC(=O)O)NC(=O)[C@@H](CCC(=O)O)NC(=O)[C@H](N)CCC(=O)O [J] (H-[dE][dE][dE][dE][dE][dE]AY[Sar]W[NMeNle]D[Phe(F5)]-NH2; N-terminus assumed)			1920	
CCCC[C@@H](C(=O)N[C@@H](CC(=O)O)C(=O)N[C@@H](Cc1ccc(N)cc1)C(N)=O)N(C)C(=O)[C@H](Cc1c[nH]c2ccccc12)NC(=O)CN(C)C(=O)[C@H](Cc1ccc(O)cc1)NC(=O)[C@H](C)NC(=O)[C@@H](CCC(=O)O)NC(=O)[C@@H](CCC(=O)O)NC(=O)[C@@H](CCC(=O)O)NC(=O)[C@@H](CCC(=O)O)NC(=O)[C@@H](CCC(=O)O)NC(=O)[C@H](N)CCC(=O)O [K] (H-[dE][dE][dE][dE][dE][dE]AY[Sar]W[NMeNle]D[Phe(4-NH2)]-NH2; N-terminus assumed)			520	
CCCC[C@@H](C(=O)N[C@@H](CC(=O)O)C(=O)N[C@@H](Cc1ccc2ccccc2c1)C(N)=O)N(C)C(=O)[C@H](Cc1c[nH]c2ccccc12)NC(=O)CN(C)C(=O)[C@H](Cc1ccc(O)cc1)NC(=O)[C@H](C)NC(=O)[C@@H](CCC(=O)O)NC(=O)[C@@H](CCC(=O)O)NC(=O)[C@@H](CCC(=O)O)NC(=O)[C@@H](CCC(=O)O)NC(=O)[C@@H](CCC(=O)O)NC(=O)[C@H](N)CCC(=O)O [L] (H-[dE][dE][dE][dE][dE][dE]AY[Sar]W[NMeNle]D[2Nal]-NH2; N-terminus assumed)			600	
CCCC[C@@H](C(=O)N[C@@H](CC(=O)O)C(=O)N[C@@H](Cc1ccc(N)cc1)C(N)=O)N(C)C(=O)[C@H](Cc1c[nH]c2ccccc12)NC(=O)CN(C)C(=O)[C@H](Cc1ccc(O)cc1)NC(=O)[C@H](C)NC(=O)[C@@H](CCC(=O)O)NC(=O)[C@@H](CCC(=O)O)NC(=O)[C@@H](CCC(=O)O)NC(=O)[C@@H](C)NC(=O)[C@@H](CCC(=O)O)NC(=O)[C@H](N)CCC(=O)O [M] (H-[dE][dE][dA][dE][dE][dE]AY[Sar]W[NMeNle]D[Phe(4-NH2)]-NH2; N-terminus assumed)				IC50 (modified peptides based on Peptide C (Table 4)): 741 ± 64 pM
